# According to patent publication US11674959B2, “Methods for identifying and preparing pharmaceutical agents for activating Tie1 and/or Tie2 receptors” (The Johns Hopkins University, priority 2017, dated 2023):
# Experiments:
# Format in all cases: cell-based, human
# STAT3 = assay: Western blot of MEC lysates: STAT3 phosphorylation; details: Ang2 and AXT107 treatment
# Description: To investigate the effects of the integrin inhibitor AXT107 on Tie2 signaling, confluent monolayers of microvascular endothelial cells (MECs) on fibronectin-coated dishes were treated with various concentrations of AXT107 followed by exposure to the Tie2 ligands Ang1 or Ang2.
# Human dermal microvascular endothelial cells (Lonza) were maintained at 37° C. and 5% CO2 in EBM-2MV medium (Lonza) and used between passages two through seven. Where applicable, cells were serum starved in EBM-2 medium (Lonza) with no supplements. For FITC-Dextran permeability assays phenol red-free media were used to avoid auto-fluorescence. […]
# For Ang1/2 signaling investigations, cell culture dishes (10 cm diameter) were coated with 5 μg/ml fibronectin (FN1; Sigma-Aldrich, St. Louis, Mo.) for two hours at 37° C. […] Specific proteins were identified by Western blot, using the following primary antibodies: Cell Signaling—phospho-Tie2 (Y992) (Cat #: 4221), Tie2 (Cat #: 7403), phospho-Stat3 (Y705) (Cat #: 4113), Stat3 (Cat #: 4904), phospho-Akt (S473) (Cat #: 4058), Akt (Cat #: 9272), phospho-p44/42 MAPK (T202/Y204) (Cat #: 4370), p44/42 MAPK (Cat #: 4695); BD Transduction Laboratories—β1 integrin (Cat #: 610467); Millipore—α5 integrin (Cat #: AB1928) and detected with HRP-conjugated goat anti-rabbit and sheep anti-mouse secondary antibodies (GE healthcare).
# phospho-Tie2 (Y992) = assay: Immunofluorescence of MEC monolayers for phospho-Tie2 (Y992); details: 200 ng/ml Ang2 for fifteen minutes plus AXT107
# Description: As such, subsequent experiments evaluate the effects of AXT107 at cell-cell junctions in MEC monolayers using immunofluorescence microscopy rather than at the EC-ECM interface.
# Human dermal microvascular endothelial cells (Lonza) were maintained at 37° C. and 5% CO2 in EBM-2MV medium (Lonza) and used between passages two through seven. Where applicable, cells were serum starved in EBM-2 medium (Lonza) with no supplements. For FITC-Dextran permeability assays phenol red-free media were used to avoid auto-fluorescence. AXT107 were manufactured at New England Peptide by […], lyophilized, and dissolved in 100% DMSO.
# Glass-bottomed, 96-well plates with half well size were coated with 10 μg/ml FN1 for two hours at 37° C. The FN1 solution was then removed by aspiration and the plate seeded with 4×10^3 MECs in EGM-2MV media. After twenty-four hours, the cells were washed once with dPBS containing Ca^2+ and Mg^2+ to remove dead cells and the cells were allowed to grow for an additional twenty-four hours. For three-hour duration treatments (i.e., VE-cadherin), cells were washed twice with dPBS containing Ca^2+ and Mg^2+ and serum starved in EBM-2 for ninety minutes. The media was then removed and the cells were treated for three hours with 100 μl of EBM-2 media containing 200 ng/ml Ang2 or PBS and varying concentrations of AXT107 or DMSO. […]
# VE-cadherin = assay: Western blot of VE-Cadherin from MEC monolayers; details: three hours of AXT107 and Ang2 treatment
# Description: The jaggedness of these junctions is related to the structure of actin within the cell.
# For Ang1/2 signaling investigations, cell culture dishes (10 cm diameter) were coated with 5 μg/ml fibronectin (FN1; Sigma-Aldrich, St. Louis, Mo.) for two hours at 37° C. The FN1 solution was then removed by aspiration and 5×10^6 microvascular endothelial cells (MECs; Lonza, Walkersville, Md.) were plated in EGM-2MV media (Lonza) and cultured for forty-eight hours at 37° C. The cells were then serum starved for sixteen hours in serum-free EGM-2 base media (Lonza). […] The cells were then transferred to ice, washed twice with ice cold Dulbecco's phosphate-buffered saline (dPBS) containing Ca^2+ and Mg^2+, and collected by scraping in 500 μl of 1× Blue Loading Buffer (Cell Signaling, Danvers, Mass.). […] Specific proteins were identified by Western blot, using the following primary antibodies: Cell Signaling—phospho-Tie2 (Y992) (Cat #: 4221), Tie2 (Cat #: 7403), phospho-Stat3 (Y705) (Cat #: 4113), Stat3 (Cat #: 4904), phospho-Akt (S473) (Cat #: 4058), Akt (Cat #: 9272), phospho-p44/42 MAPK (T202/Y204) (Cat #: 4370), p44/42 MAPK (Cat #: 4695); BD Transduction Laboratories—β1 integrin (Cat #: 610467); Millipore—α5 integrin (Cat #: AB1928) and detected with HRP-conjugated goat anti-rabbit and sheep anti-mouse secondary antibodies (GE healthcare).
sequence,measurement,setting,value
LRRFSTAPFAFIDINDVINF [AXT107],STAT3 phosphorylation,STAT3,also increased
same,phospho-Tie2 fluorescence intensity and distribution,phospho-Tie2 (Y992),increased overall fluorescence intensity and redistributed phospho-Tie2 along cell-cell junctions and into large clusters
same,Total level of VE-cadherin,VE-cadherin,remained unchanged
